Measurements published in ChEMBL document CHEMBL5291721, “A preclinical secondary pharmacology resource illuminates target-adverse drug reaction associations of marketed drugs” (Nat Commun, 2023).

Experiments:
[1] = target: T1, Alpha-1A adrenergic receptor (Homo sapiens, UniProt P35348); format: functional, cell-based
T1 sequence (P35348 whole entry): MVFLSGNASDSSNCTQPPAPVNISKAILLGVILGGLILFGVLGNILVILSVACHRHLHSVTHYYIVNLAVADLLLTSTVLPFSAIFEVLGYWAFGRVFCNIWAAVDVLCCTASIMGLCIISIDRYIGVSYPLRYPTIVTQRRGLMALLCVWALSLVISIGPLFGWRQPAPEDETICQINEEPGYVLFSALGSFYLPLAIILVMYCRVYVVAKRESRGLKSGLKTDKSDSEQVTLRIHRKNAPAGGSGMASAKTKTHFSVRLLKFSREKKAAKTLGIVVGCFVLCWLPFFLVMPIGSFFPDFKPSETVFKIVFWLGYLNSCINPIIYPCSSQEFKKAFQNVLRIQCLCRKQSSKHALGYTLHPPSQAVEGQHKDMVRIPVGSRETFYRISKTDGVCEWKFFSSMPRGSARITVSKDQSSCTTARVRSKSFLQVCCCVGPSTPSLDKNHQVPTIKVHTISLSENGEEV

[2] = target: Beta-1 adrenergic receptor (Homo sapiens, UniProt P08588); format: functional
[3] = target: Beta-2 adrenergic receptor (Homo sapiens, UniProt P07550)
[4] = target: T2, Type-1 angiotensin II receptor (Homo sapiens, UniProt P30556)
T2 sequence (P30556 whole entry): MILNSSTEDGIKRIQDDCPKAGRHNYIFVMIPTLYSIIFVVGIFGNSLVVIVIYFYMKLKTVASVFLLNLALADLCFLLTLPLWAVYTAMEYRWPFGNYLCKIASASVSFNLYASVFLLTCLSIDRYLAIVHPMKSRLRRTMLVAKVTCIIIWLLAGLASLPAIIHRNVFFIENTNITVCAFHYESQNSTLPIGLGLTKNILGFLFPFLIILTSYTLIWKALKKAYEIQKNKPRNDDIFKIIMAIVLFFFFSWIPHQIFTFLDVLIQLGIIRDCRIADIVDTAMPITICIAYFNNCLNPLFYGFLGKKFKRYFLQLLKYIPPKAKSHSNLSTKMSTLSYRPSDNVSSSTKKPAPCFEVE

Vasopressin V2 receptor = Vasopressin V2 receptor (Homo sapiens, UniProt P30518)
[5] = target: Voltage-dependent L-type calcium channel subunit alpha-1C (Rattus norvegicus, UniProt P22002); format: functional
[6] = target: Gamma-aminobutyric acid receptor subunit alpha-1 (Rattus norvegicus, UniProt P62813); format: functional
Histamine H2 receptor = Histamine H2 receptor (Homo sapiens, UniProt P25021); format: functional, cell-based
[7] = target: T3, 5-hydroxytryptamine receptor 2C (Homo sapiens, UniProt P28335)
T3 sequence (P28335 whole entry): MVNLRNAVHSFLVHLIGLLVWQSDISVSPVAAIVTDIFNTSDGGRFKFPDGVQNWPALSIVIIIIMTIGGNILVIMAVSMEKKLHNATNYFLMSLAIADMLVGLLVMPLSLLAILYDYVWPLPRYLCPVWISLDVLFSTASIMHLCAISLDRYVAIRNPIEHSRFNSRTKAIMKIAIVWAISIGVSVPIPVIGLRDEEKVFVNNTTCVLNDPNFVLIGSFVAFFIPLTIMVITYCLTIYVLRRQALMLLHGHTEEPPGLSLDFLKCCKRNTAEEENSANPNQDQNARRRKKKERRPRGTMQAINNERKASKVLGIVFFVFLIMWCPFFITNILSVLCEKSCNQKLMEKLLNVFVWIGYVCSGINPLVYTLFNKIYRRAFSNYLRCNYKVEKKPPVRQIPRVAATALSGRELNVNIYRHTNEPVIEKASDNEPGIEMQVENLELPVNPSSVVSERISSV

Motilin receptor = Motilin receptor (Homo sapiens, UniProt O43193)
[8] = target: Delta-type opioid receptor (Homo sapiens, UniProt P41143)
[9] = target: Kappa-type opioid receptor (Homo sapiens, UniProt P41145)
[10] = target: 3',5'-cyclic-AMP phosphodiesterase 4D (Homo sapiens, UniProt Q08499); format: functional
[11] = target: T4, Prostaglandin G/H synthase 1 (Rattus norvegicus, UniProt Q63921); format: functional
T4 sequence (Q63921 whole entry): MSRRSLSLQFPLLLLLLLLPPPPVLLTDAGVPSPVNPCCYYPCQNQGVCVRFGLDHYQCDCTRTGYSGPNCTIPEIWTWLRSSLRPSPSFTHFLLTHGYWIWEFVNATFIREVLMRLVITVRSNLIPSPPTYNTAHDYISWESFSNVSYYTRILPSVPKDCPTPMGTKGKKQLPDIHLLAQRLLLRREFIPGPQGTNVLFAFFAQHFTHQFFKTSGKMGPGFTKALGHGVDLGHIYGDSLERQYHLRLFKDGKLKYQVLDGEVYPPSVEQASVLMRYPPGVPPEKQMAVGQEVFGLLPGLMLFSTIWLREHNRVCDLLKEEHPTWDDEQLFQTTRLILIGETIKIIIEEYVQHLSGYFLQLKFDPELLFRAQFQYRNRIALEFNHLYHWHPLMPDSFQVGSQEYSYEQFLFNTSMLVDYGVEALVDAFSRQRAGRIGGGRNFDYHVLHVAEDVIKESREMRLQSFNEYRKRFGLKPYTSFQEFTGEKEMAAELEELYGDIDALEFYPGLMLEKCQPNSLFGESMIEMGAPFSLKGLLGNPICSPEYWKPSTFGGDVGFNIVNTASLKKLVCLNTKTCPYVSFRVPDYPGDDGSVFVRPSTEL

[12] = target: Sodium-dependent noradrenaline transporter (Homo sapiens, UniProt P23975)
D(3) dopamine receptor = D(3) dopamine receptor (Homo sapiens, UniProt P35462)
[13] = target: T1, Alpha-1A adrenergic receptor; format: functional, cell-based; remark: listed apart in the source
Also: assay procedure not described here.

Sequence of Sodium-dependent noradrenaline transporter (P23975 whole entry): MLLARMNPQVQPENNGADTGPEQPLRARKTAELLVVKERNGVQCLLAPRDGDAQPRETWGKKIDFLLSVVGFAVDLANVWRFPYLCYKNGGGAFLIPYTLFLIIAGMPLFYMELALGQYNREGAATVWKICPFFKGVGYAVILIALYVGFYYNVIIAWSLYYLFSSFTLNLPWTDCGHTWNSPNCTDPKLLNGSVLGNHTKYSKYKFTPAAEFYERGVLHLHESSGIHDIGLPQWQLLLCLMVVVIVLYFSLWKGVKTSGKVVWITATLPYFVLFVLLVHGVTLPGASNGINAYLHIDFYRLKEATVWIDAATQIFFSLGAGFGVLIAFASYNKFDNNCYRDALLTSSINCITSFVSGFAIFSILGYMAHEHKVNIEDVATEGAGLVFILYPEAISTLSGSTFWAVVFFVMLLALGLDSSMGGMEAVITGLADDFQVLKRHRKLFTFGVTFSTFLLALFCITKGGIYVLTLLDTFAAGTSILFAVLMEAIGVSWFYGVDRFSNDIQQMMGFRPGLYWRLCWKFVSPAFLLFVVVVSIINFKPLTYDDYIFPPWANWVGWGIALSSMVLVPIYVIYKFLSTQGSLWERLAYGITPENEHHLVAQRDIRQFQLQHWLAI
Sequence of 3',5'-cyclic-AMP phosphodiesterase 4D (Q08499 whole entry): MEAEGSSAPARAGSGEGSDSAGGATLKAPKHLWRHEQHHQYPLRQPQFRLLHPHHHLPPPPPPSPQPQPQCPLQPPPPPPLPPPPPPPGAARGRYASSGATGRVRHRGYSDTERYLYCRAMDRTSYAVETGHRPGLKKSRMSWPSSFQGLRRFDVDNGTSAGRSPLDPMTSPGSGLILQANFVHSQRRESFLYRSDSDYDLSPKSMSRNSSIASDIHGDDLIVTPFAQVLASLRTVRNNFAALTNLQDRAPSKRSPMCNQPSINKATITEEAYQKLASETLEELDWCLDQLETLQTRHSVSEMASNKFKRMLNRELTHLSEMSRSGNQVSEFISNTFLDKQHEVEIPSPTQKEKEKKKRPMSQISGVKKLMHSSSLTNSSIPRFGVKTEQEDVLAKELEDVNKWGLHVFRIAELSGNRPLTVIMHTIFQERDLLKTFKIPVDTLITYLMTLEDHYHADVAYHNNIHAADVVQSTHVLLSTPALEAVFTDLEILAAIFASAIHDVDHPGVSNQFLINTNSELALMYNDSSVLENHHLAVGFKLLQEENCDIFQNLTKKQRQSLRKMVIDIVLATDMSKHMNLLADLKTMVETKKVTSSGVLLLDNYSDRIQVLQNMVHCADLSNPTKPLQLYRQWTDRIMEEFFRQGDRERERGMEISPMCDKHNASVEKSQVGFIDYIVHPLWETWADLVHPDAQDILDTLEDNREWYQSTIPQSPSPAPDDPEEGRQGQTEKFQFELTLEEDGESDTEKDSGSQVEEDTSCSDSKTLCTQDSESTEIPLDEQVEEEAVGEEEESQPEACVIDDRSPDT
Sequence of Voltage-dependent L-type calcium channel subunit alpha-1C (P22002 whole entry): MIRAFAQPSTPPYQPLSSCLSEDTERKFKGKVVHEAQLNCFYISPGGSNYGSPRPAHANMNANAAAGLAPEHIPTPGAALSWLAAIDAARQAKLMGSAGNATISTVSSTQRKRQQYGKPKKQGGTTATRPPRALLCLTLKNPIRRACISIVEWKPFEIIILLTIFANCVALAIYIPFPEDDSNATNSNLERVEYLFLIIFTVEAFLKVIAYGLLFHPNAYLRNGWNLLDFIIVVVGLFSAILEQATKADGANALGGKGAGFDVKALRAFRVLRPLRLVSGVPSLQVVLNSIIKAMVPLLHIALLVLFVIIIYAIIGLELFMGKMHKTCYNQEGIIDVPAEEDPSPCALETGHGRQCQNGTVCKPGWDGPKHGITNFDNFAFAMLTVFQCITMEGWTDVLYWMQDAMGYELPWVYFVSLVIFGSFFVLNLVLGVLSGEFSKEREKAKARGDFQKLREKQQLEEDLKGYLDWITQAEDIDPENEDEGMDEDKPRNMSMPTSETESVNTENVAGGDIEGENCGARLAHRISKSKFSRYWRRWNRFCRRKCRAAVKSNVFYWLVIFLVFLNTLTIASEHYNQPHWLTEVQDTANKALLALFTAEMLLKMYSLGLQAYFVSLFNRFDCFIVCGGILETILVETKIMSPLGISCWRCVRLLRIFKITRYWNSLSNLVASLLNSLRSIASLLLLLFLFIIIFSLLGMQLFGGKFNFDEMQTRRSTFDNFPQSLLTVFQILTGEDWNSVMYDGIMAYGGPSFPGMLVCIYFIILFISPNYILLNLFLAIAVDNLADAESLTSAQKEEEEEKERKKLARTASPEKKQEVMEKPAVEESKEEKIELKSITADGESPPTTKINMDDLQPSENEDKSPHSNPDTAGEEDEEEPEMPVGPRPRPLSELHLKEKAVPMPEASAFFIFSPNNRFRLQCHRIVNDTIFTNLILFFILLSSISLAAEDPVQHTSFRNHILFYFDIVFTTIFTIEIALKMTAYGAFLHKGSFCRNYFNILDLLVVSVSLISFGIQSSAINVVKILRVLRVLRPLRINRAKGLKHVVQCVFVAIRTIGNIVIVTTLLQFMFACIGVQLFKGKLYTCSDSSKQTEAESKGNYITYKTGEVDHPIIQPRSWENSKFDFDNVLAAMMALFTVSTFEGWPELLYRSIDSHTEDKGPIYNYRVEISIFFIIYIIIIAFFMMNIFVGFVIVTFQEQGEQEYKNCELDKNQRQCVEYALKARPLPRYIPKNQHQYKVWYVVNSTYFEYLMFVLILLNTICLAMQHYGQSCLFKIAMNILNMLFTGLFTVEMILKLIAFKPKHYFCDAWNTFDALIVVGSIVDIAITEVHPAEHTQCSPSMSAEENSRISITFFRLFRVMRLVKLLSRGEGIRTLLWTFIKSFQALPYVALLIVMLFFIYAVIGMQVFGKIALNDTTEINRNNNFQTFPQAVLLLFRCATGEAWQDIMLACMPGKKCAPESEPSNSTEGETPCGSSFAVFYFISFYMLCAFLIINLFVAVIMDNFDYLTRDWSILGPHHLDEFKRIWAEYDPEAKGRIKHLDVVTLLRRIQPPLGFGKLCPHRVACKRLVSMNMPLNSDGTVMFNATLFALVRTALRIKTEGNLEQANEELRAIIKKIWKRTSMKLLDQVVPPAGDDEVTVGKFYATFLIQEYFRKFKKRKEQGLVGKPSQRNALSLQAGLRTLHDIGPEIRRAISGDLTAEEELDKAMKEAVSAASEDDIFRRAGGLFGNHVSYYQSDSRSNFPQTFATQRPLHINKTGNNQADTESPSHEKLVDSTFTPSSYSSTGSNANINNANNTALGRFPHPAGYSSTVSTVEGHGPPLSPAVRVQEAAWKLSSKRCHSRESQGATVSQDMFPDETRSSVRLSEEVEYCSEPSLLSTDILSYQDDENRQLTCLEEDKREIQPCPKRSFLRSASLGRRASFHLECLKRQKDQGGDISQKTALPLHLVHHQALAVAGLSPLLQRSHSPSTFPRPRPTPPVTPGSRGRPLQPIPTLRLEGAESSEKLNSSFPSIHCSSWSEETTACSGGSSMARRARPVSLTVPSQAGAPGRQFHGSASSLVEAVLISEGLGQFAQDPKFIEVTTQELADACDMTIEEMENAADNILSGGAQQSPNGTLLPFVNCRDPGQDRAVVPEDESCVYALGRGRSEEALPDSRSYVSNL
Sequence of Gamma-aminobutyric acid receptor subunit alpha-1 (P62813 whole entry): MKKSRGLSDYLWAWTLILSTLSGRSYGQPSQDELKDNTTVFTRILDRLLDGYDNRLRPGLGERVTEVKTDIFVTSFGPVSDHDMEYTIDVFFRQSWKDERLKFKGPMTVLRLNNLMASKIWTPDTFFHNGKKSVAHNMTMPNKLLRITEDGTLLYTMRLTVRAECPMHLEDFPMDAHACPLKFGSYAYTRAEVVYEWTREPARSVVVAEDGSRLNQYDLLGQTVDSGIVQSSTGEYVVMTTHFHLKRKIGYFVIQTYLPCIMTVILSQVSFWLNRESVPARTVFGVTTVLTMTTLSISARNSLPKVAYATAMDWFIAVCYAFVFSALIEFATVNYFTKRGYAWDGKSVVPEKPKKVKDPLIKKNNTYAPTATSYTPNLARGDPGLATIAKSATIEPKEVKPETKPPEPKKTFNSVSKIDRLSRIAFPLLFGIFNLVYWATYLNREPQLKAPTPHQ
Sequence of Beta-1 adrenergic receptor (P08588 whole entry): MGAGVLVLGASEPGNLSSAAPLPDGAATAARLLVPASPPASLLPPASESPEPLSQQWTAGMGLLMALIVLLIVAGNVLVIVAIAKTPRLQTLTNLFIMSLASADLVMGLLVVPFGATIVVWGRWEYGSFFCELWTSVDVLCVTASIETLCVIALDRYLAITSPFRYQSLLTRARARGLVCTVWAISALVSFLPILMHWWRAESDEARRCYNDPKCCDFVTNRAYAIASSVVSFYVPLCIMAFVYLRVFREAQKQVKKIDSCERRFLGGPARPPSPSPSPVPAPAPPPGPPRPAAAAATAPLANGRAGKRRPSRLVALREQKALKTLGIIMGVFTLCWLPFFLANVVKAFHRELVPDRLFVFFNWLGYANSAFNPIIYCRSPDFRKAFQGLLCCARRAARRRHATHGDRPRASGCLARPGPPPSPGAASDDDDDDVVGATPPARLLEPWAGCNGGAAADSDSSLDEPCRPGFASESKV
Sequence of Kappa-type opioid receptor (P41145 whole entry): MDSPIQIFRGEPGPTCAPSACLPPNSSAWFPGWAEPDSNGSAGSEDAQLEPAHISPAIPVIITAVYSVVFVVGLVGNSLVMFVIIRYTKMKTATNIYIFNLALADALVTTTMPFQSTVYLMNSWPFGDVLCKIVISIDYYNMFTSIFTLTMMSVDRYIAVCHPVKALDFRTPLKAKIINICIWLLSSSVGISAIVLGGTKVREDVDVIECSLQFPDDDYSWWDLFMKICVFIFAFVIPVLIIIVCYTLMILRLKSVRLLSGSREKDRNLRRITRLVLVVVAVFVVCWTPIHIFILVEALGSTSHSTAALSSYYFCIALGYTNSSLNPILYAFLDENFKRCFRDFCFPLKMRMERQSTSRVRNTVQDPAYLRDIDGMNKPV

| Compound | AC50 [1] [µM] | AC50 [2] [µM] | AC50 [3] [µM] | AC50 [4] [µM] | AC50 (Vasopressin V2 receptor) [µM] | AC50 [5] [µM] | AC50 [6] [µM] | AC50 (Histamine H2 receptor) [µM] | AC50 [7] [µM] | AC50 (Motilin receptor) [µM] | AC50 [8] [µM] | AC50 [9] [µM] | AC50 [10] [µM] | AC50 [11] [µM] | AC50 [12] [µM] | AC50 (D(3) dopamine receptor) [µM] | AC50 [13] [µM] |
| --- | --- | --- | --- | --- | --- | --- | --- | --- | --- | --- | --- | --- | --- | --- | --- | --- | --- |
| CCC1(C2=CCCCCC2)C(=O)NC(=O)NC1=O [HEPTABARBITAL] | > 30 | > 10 | > 10 | > 10 | > 10 | > 10 | > 10 | > 10 | > 30 | > 10 | > 30 | > 10 | > 30 | > 10 | > 10 | > 30 | > 30 |
| Cc1c(O)c(=O)ccn1C [DEFERIPRONE] | > 30 | > 30 | > 30 | > 30 | > 30 | > 30 | > 30 | > 30 | > 30 | > 30 | > 30 | > 30 | > 30 | > 3 | > 30 | > 30 | > 30 |
| COc1ccc2c(c1)c(CC(=O)OCC(=O)O)c(C)n2C(=O)c1ccc(Cl)cc1 [ACEMETACIN] | > 30 | > 30 | > 30 | > 30 | > 30 | > 30 | > 30 | > 30 | > 30 | > 30 | > 30 | > 30 | > 30 | 30 | > 30 | > 30 | > 30 |
| CCCCOc1cc(C(=O)NCCN(CC)CC)c2ccccc2n1 [DIBUCAINE] | > 30 | > 10 | > 10 | > 10 | > 30 | > 10 | > 30 | > 10 | > 30 | > 30 | > 30 | 7.36 | > 30 | > 10 | > 10 | > 30 | > 30 |
| CC[C@]1(O)C[C@@H]2CN(CCc3c([nH]c4ccccc34)[C@@](C(=O)OC)(c3cc4c(cc3OC)N(C)[C@H]3[C@@](O)(C(N)=O)[C@H](O)[C@]5(CC)C=CCN6CC[C@]43[C@@H]65)C2)C1 [VINDESINE] | > 30 | > 30 | > 30 | > 30 | > 30 | > 30 | > 30 | > 30 | > 30 | 4.8 | > 30 | > 30 | > 30 | 25 | > 30 | > 30 | > 30 |
| CC(C)(Oc1ccc(C2CC2(Cl)Cl)cc1)C(=O)O (centres undefined) [CIPROFIBRATE] | > 30 | > 30 | > 30 | > 30 | > 30 | > 30 | > 30 | > 30 | > 30 | > 30 | > 30 | > 30 | > 30 | > 30 | > 30 | > 30 | > 30 |
| CC(Cc1ccccc1)NCCC(c1ccccc1)c1ccccc1 (centres undefined) [PRENYLAMINE] | > 30 | 6.8 | 3.5 | > 30 | > 30 | 4.28 | > 10 | > 30 | > 30 | > 10 | > 30 | 0.382 | > 30 | > 30 | 2.3 | 2.4 | > 30 |
| C#CCN(C)[C@H](C)Cc1ccccc1 [SELEGILINE] | > 30 | > 10 | > 10 | > 10 | > 10 | > 10 | > 10 | > 10 | > 30 | > 10 | > 30 | 7.8 | > 30 | > 10 | > 10 | > 30 | > 30 |
| O=C(C[S+]([O-])C(c1ccccc1)c1ccccc1)NO (centres undefined) | > 30 | > 30 | > 30 | > 30 | > 30 | > 30 | > 30 | > 30 | > 30 | > 30 | > 30 | > 30 | 8.9 | > 30 | > 30 | > 30 | > 30 |
| TOCOFERSOLAN | > 30 | > 30 | > 30 | > 30 | > 30 | > 30 | > 30 | > 30 | > 30 | > 30 | > 30 | > 30 | > 10 | 4 | > 30 | > 30 | > 30 |
| CC(C)c1c(C(=O)Nc2ccccc2)c(-c2ccccc2)c(-c2ccc(F)cc2)n1CC[C@@H](O)C[C@@H](O)CC(=O)O [ATORVASTATIN] | > 30 | > 10 | > 10 | > 30 | > 30 | > 10 | > 10 | > 10 | > 30 | > 10 | > 30 | > 10 | > 30 | > 30 | > 30 | > 30 | > 30 |
| CCN(CC)CCOC(=O)c1ccc(N)cc1 [PROCAINE] | > 30 | > 10 | > 10 | > 30 | > 30 | > 10 | > 10 | > 10 | > 30 | > 10 | > 30 | > 10 | > 10 | > 30 | > 30 | > 30 | > 30 |
